Columns and labels:
[1] = GC-odor threshold values (gas chromatograph with sniff port, panel of trained evaluators); details: for odour threshold value geometric mean: absolute amount delivered at the sniff port, 5 panelists, identical conditions
From the text: As used herein, “odor threshold value” means the lowest concentration of a volatile organic compound in air which can be detected by smell. Generally speaking, it can be said that a compound with a low odor threshold value is more powerful than a compound with a high odor threshold value and thus allows the use of very low concentration in a fragrance composition to achieve an olfactory effect.
According to standard procedures known to the person skilled in the art, threshold values for volatile perfumery compounds are determined on a gas chromatograph equipped with a sniff port by a panel of trained evaluators. The lowest concentration smelled by each panelist is recorded as the individual threshold value expressed in ng (absolute amount of compound delivered at the sniff port).
Under identical conditions the odour threshold value for the individual compounds was measured.

yellow mealworm = details: J. Agr. Food Chem. 20(1), 1972, 65-69; cited from earlier work
[2] = ratio of GC-odour threshold values

SMILES	odour threshold value geometric mean [1] [ng]	odour threshold value, times lower compared to Citronellyl Acetate [1, 2] [times]	odour threshold value, times lower compared to Ethyl Citronellyl Carbonate [1, 2] [times]	juvenile hormone activity (yellow mealworm)
COC(=O)OCCC(C)CCC=C(C)C (racemic) [Example 1, 3,7-dimethyloct-6-en-1-yl methyl carbonate]	16	15	10	juvenile hormone activity
CC(C)=CCCC(C)CCOC(=O)Oc1ccccc1 (stereo not drawn) [3,7-Dimethyloct-6-en-1-yl phenyl carbonate]	–	–	–	juvenile hormone activity
CC(C)=CCCC(C)CCO (stereo not drawn) [Citronellol, 3,7-dimethyloct-6-en-1-ol]	5.2	–	–	–
CC(=O)OCCC(C)CCC=C(C)C (stereo not drawn) [Citronellyl Acetate, 3,7-dimethyloct-6-en-1-yl acetate]	241	–	–	–
CCOC(=O)OCCC(C)CCC=C(C)C (stereo not drawn) [Ethyl Citronellyl Carbonate, 3,7-dimethyloct-6-en-1-yl ethyl carbonate]	158	–	–	juvenile hormone activity

From patent US11098266B2, “Organic compounds” (Givaudan SA, priority 2017, dated 2021)
